Test results taken from patent publication US20030149075A1, “Zoniporide mesylate pharmaceutical compositions and processes for improving solubility of zoniporide” (Pfizer Inc., priority 2002, published 2003).
Counter-ions that a name gives are not always drawn.

Assays:
[1] = Aqueous solubility of Zoniporide / Zoniporide mesylate, including pH adjustment with acids; format: physicochemical
Source text: The most commercially feasible and the most pharmaceutically acceptable means, in this particular instance, for increasing solubility of Zoniporide was via pH adjustment.
Further additions of methanesulfonic acid further improved solubility with decreasing pH.
The phrase “increase (or increasing) the solubility” means increasing the solubility of Zoniporide or Zoniporide mesylate to a value greater than the solubility of Zoniporide mesylate in water (i.e. greater than about 18 mgA/mL).
(§1) The use of methanesulfonic acid to lower the pH of pharmaceutical formulations is non-traditional in the pharmaceutical field. […] Typically, the pH of pharmaceutical intravenous formulations is not lower than about pH of 3, because of injection-site toleration problems that are inherent in low pH formulations. […] Reducing the pH below about 2, however, can further increase the concentration of Zoniporide, but may cause injection site toleration issues.

[2] = Injection-site toleration of low-pH Zoniporide formulations; format: in vivo; conditions: formulations adjusted with methanesulfonic acid to as low as about pH 2
Source text: as §1

SMILES	solubility of Zoniporide mesylate in water ([1]; in water, mgA/mL = mg/mL of active compound Zoniporide)	change in solubility on pH adjustment with methanesulfonic acid ([1]; addition of methanesulfonic acid, further additions further improved solubility with decreasing pH)	change in solubility on pH adjustment with typical pH adjusters ([1]; hydrochloric acid, sulfuric acid, phosphoric acid, aqueous solution, pH range acceptable for infusion)	injection-site toleration [2]
N=C(N)NC(=O)c1cnn(-c2cccc3ncccc23)c1C1CC1 [Zoniporide mesylate]	about 18 mgA/mL	–	–	–
N=C(N)NC(=O)c1cnn(-c2cccc3ncccc23)c1C1CC1 [Zoniporide, N-(5-cyclopropyl-1-quinolin-5-yl-1H-pyrazole-4-carbonyl)-guanidine]	–	increase in solubility	no significant increase in solubility	without the expected injection-site toleration issues
